Results reported in patent publication US12440481B2, “Esters and carbamates as modulators of sodium channels” (VERTEX PHARMACEUTICALS INCORPORATED, priority 2019, dated 2025).

Biological target: human NaV 1.8 (Homo sapiens, UniProt Q9Y5Y9)
Assay: E-VIPR Assay for Detecting and Measuring NaV Inhibition Properties
Format: cell-based
Settings: HEK cells expressing a truncated form of human NaV 1.8; HS = human serum; read-out: EVIPR HS IC50
Description: E-VIPR Assay for Detecting and Measuring NaV Inhibition Properties
Sodium ion channels are voltage-dependent proteins that can be activated by inducing membrane voltage changes by applying electric fields. The electrical stimulation instrument and methods of use, referred to as E-VIPR, are described in International Publication No. WO 2002/008748 A3 and C.-J. Huang et al. Characterization of voltage-gated sodium channel blockers by electrical stimulation and fluorescence detection of membrane potential, 24 Nature Biotech. 439-46 (2006), both of which are incorporated by reference in their entirety. The instrument comprises a microtiter plate handler, an optical system for exciting the coumarin dye while simultaneously recording the coumarin and oxonol emissions, a waveform generator, a current- or voltage-controlled amplifier, and parallel electrode pairs that are inserted into assay plate wells. Under integrated computer control, this instrument passes user-programmed electrical stimulus protocols to cells within the wells of the microtiter plate.
16-20 hours prior to running the assay on E-VIPR, HEK cells expressing a truncated form of human NaV 1.8 with full channel activity were seeded into microtiter 384-well plates, pre-coated with matrigel, at a density of 25,000 cells per well. 2.5-5% KIR2.1 Bacmam virus was added to the final cell suspension before seeding into cell plates. HEK cells were grown in Dulbecco's Modified Eagle's Medium (DMEM) supplemented with 10% FBS (Fetal Bovine Serum, qualified; Sigma #F4135), 1% NEAA (Non-Essential Amino Acids, Gibco #11140), 1% HEPES (Gibco #15630), 1% Pen-Strep (Penicillin-Streptomycin; Gibco #15140) and 5 μg/ml Blasticidin (Gibco #R210-01). Cells were expanded in vented cap cell culture flasks, with 90-95% humidity and 5% CO2.
Reagents and Stock Solutions:
• 100 mg/mL Pluronic F-127 (Sigma #P2443), in dry DMSO • Compound Plates: Corning 384-well Polypropylene Round Bottom #3656 • Cell Plates: 384-well tissue culture treated plates (Greiner #781091-1B) • 2.5-5% KIR 2.1 Bacmam virus (produced in-house), prepared as described in Section 3.3 of J. A. Fornwald et al., Gene Expression in Mammalian Cells Using BacMam, a Modified Baculovirus System, 1350 Methods in Molecular Biology 95-116 (2016), the entire contents of which are incorporated by reference. The concentration used can be dependent on viral titer of each batch. • 5 mM DiSBAC6 (3), a voltage sensitive oxonol acceptor (CAS number 169211-44-3; 5-[3-(1,3-dihexylhexahydro-4,6-dioxo-2-thioxo-5-pyrimidinyl)-2-propen-1-ylidene]-1,3-dihexyldihydro-2-thioxo-4,6(1H,5H)-pyrimidinedione), in dry DMSO. The preparation of DiSBAC6 (3) is analogous to that of DiSBAC4 (3) as described in Voltage Sensing by Fluorescence Resonance Energy Transfer in Single Cells, Gonzalez, J. E. and Tsien, R. Y. (1995) Biophys. J. 69, 1272-1280. • 5 mM CC2-DMPE, a commercially available membrane-bound coumarin phospholipid FRET donor (ThermoFisher Scientific catalog number K1017, CAS number 393782-57-5; tetradecanoic acid, 1,1′-[(1R)-1-[8-(6-chloro-7-hydroxy-2-oxo-2H-1-benzopyran-3-yl)-3-hydroxy-3-oxido-8-oxo-2,4-dioxa-7-aza-3-phosphaoct-1-yl]-1,2-ethanediyl] ester) was prepared in dry DMSO. […]

human NaV 1.8, sequence (Q9Y5Y9 whole entry, looked up): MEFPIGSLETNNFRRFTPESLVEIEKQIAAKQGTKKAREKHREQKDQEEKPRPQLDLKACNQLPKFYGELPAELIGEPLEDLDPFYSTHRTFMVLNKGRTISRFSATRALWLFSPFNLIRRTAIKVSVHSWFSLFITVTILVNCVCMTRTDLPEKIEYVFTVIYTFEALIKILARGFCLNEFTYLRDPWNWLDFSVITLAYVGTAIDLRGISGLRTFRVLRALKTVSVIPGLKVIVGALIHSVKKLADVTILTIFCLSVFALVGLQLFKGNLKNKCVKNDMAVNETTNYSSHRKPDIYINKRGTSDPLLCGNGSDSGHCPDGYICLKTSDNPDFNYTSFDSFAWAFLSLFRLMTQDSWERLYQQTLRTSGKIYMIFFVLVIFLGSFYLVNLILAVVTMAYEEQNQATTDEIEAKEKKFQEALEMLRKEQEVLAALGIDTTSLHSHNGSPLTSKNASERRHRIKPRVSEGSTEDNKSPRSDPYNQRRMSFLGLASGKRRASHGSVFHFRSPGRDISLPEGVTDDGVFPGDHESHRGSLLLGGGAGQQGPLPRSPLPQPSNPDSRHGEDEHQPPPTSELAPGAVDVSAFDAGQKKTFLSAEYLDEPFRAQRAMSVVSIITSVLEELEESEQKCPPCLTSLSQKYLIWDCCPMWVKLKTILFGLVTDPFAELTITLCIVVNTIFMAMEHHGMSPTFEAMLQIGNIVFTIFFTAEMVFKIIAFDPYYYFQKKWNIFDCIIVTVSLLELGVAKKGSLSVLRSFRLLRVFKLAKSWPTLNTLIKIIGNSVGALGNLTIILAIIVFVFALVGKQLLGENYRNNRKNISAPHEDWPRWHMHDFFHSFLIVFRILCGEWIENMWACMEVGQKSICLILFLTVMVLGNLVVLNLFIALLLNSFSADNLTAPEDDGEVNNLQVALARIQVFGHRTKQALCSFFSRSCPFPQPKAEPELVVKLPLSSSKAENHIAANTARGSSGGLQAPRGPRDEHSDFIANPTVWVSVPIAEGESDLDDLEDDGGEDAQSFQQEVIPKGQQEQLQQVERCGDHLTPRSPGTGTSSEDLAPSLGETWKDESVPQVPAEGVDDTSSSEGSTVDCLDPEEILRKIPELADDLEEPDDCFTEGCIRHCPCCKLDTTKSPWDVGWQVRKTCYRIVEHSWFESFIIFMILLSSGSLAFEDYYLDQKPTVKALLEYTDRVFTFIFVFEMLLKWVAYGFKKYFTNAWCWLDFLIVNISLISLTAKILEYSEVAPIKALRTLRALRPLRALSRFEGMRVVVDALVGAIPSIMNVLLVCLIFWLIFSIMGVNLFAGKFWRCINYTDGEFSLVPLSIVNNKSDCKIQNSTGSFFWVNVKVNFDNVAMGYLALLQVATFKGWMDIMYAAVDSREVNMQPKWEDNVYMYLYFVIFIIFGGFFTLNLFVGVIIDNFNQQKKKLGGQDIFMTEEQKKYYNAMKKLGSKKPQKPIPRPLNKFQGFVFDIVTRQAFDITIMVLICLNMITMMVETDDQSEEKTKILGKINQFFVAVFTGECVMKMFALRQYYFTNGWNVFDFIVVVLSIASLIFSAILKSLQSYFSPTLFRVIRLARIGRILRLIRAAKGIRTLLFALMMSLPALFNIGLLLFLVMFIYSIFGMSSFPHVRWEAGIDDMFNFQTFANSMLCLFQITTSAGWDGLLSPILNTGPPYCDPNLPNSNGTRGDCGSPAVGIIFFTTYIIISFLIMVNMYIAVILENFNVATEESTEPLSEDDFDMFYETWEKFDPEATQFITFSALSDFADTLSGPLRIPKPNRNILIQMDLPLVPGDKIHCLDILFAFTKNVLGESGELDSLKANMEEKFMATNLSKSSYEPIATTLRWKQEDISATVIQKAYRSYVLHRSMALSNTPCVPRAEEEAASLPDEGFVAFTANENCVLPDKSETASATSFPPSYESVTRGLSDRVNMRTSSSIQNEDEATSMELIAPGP

IC50	SMILES
100 to 500 nM	COC(=O)c1cc(NC(=O)c2c(Oc3ccc(OC(F)(F)F)cc3OC)ccc(C3CC3)c2C)c(C)cn1 [Compound 2, methyl 4-[[3-cyclopropyl-6-[2-methoxy-4-(trifluoromethoxy)phenoxy]-2-methyl-benzoyl]amino]-5-methyl-pyridine-2-carboxylate]
≥ 1000 nM	COC(=O)c1nccc(NC(=O)c2c(Oc3ccc(OC(F)(F)F)c(F)c3OC)ccc(C(F)(F)F)c2F)c1C [Compound 34, methyl 4-(2-fluoro-6-(3-fluoro-2-methoxy-4-(trifluoromethoxy)phenoxy)-3-(trifluoromethyl)benzamido)-3-methylpicolinate]
≥ 1000 nM	COC(=O)c1nccc(NC(=O)c2c(Oc3ccc(OC(F)(F)F)cc3OC)ccc(C(F)(F)F)c2F)c1C [Compound 21, Methyl 4-[[2-fluoro-6-[2-methoxy-4-(trifluoromethoxy)phenoxy]-3-(trifluoromethyl)benzoyl]amino]-3-methyl-pyridine-2-carboxylate]
100 to 500 nM	COC(=O)c1cc(NC(=O)c2c(Oc3ccc(OC(F)(F)F)c(F)c3OC)ccc(C(F)(F)F)c2F)cc(C(=O)OC)n1 [Compound 35, dimethyl 4-(2-fluoro-6-(3-fluoro-2-methoxy-4-(trifluoromethoxy)phenoxy)-3-(trifluoromethyl)benzamido)pyridine-2,6-dicarboxylate]
≥ 1000 nM	COC(=O)c1nccc(NC(=O)c2c(Oc3ccc(OC(F)(F)F)cc3OC)ccc(C(F)(F)F)c2C)c1C [Compound 33, methyl 4-(6-(2-methoxy-4-(trifluoromethoxy)phenoxy)-2-methyl-3-(trifluoromethyl)benzamido)-3-methylpicolinate]
100 to 500 nM	[2H]C([2H])([2H])Oc1cc(OC(F)(F)F)ccc1Oc1cc(C(F)(F)F)c(F)cc1C(=O)Nc1ccnc(C(=O)OC)c1 [Compound 6, methyl 4-[[5-fluoro-2-[2-(trideuteriomethoxy)-4-(trifluoromethoxy)phenoxy]-4-(trifluoromethyl)benzoyl]amino]pyridine-2-carboxylate]
< 100 nM	COC(=O)c1cc(NC(=O)c2c(Oc3ccc(OC(F)(F)F)c(F)c3Cl)ccc(C(F)(F)F)c2F)c(C)cn1 [Compound 20, Methyl 4-[[6-[2-chloro-3-fluoro-4-(trifluoromethoxy)phenoxy]-2-fluoro-3-(trifluoromethyl)benzoyl]amino]-5-methyl-pyridine-2-carboxylate]
100 to 500 nM	COC(=O)c1nccc(NC(=O)c2c(Oc3ccc(OC(F)(F)F)c(F)c3OC)ccc(C(F)(F)F)c2F)c1F [Compound 30]
< 100 nM	COC(=O)c1cc(NC(=O)c2c(Oc3ccc(OC(F)(F)F)c(F)c3C)ccc(C(F)(F)F)c2C)c(C)cn1 [Compound 16, Methyl 4-[[6-[3-fluoro-2-methyl-4-(trifluoromethoxy)phenoxy]-2-methyl-3-(trifluoromethyl)benzoyl]amino]-5-methyl-pyridine-2-carboxylate]
≥ 1000 nM	COC(=O)c1cc(NC(=O)c2c(Oc3ccc(OC(F)(F)F)cc3Cl)ccc(C3CC3)c2C)c(C)cn1 [Compound 22, Methyl 4-[[6-[2-chloro-4-(trifluoromethoxy)phenoxy]-3-cyclopropyl-2-methyl-benzoyl]amino]-5-methyl-pyridine-2-carboxylate]
≥ 1000 nM	[2H]C([2H])([2H])Oc1cc(OC(F)(F)F)ccc1Oc1ccc(C(F)(F)F)cc1C(=O)Nc1ccnc(NC(=O)OC(C)(C)C)c1 [Compound 9, tert-butyl N-[4-[[2-[2-(trideuteriomethoxy)-4-(trifluoromethoxy)phenoxy]-5-(trifluoromethyl)benzoyl]amino]-2-pyridyl]carbamate]
